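Cultured in 96-well plates, cells were exposed to test compound for 48 hours across five concentrations. The concentration for 50% growth inhibition is given as GI50.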 The source made the active and inactive calls. Rule as the data show it: active = GI50 up to about 1.1 µM and inactive = higher.
Key:
Test in all cases: DTP human tumour cell line panel, 48 h
HOP-92 = tested on: HOP-92
ACHN = tested on: ACHN
DLD-1 = tested on: DLD-1
IGROV-1 = tested on: IGROV-1
OVCAR-5 = tested on: OVCAR-5
OVCAR-4 = tested on: OVCAR-4
HT-29 = tested on: HT-29
HL-60 = tested on: HL-60
SR = tested on: SR
SK-OV-3 = tested on: SK-OV-3
EKVX = tested on: EKVX
Malme-3M = tested on: Malme-3M
A549 = tested on: A549
SNB-75 = tested on: SNB-75
M14 = tested on: M14
RXF 393 = tested on: RXF 393

Measured: GI50

COc1ccccc1NC(=O)C1=C(C)NC(C)=C(C(=O)Nc2ccccc2OC)C1c1ccccc1Cl
inactive: HOP-92 > 100 µM | ACHN 55.7 µM | DLD-1 > 100 µM | IGROV-1 > 100 µM | OVCAR-5 > 100 µM | OVCAR-4 > 100 µM | HT-29 64.1 µM | HL-60 53.6 µM | SR 36.6 µM | SK-OV-3 > 100 µM | EKVX 53.5 µM | Malme-3M > 100 µM | A549 41.6 µM | SNB-75 46.9 µM | M14 91 µM

Cc1c(C)c2ccc(OC(C)C(=O)O)cc2oc1=O (configuration not stated)
inactive: HOP-92 > 100 µM | ACHN > 100 µM | DLD-1 > 100 µM | IGROV-1 > 100 µM | RXF 393 > 100 µM | OVCAR-4 > 100 µM | HT-29 > 100 µM | HL-60 > 100 µM | SR > 100 µM | SK-OV-3 > 100 µM | EKVX > 100 µM | Malme-3M > 100 µM | A549 > 100 µM | SNB-75 > 100 µM | M14 > 100 µM

O=C1C(c2ccccc2)=C(c2ccccc2)C(c2ccccc2)/C1=C1\C(=O)C(c2ccccc2)=C(c2ccccc2)C1c1ccccc1 (configuration not stated)
inactive: HOP-92 > 100 µM | ACHN > 100 µM | DLD-1 > 100 µM | IGROV-1 > 100 µM | RXF 393 > 100 µM | OVCAR-5 > 100 µM | OVCAR-4 > 100 µM | HT-29 > 100 µM | HL-60 > 100 µM | SR > 100 µM | SK-OV-3 > 100 µM | EKVX > 100 µM | Malme-3M > 100 µM | A549 > 100 µM | SNB-75 > 100 µM | M14 41.9 µM

COC12OCCN(C)C1=CC(=O)C1N=NCC12 (configuration not stated)
inactive: HOP-92 > 100 µM | DLD-1 > 100 µM | IGROV-1 > 100 µM | RXF 393 > 100 µM | HT-29 > 100 µM | HL-60 > 100 µM | SK-OV-3 > 100 µM | EKVX > 100 µM | A549 > 100 µM | SNB-75 > 100 µM | M14 > 100 µM

O=C1C=CC(=O)C12CCc1ccccc12
inactive: HOP-92 > 100 µM | ACHN > 100 µM | DLD-1 > 63.8 µM | IGROV-1 > 100 µM | RXF 393 > 94.6 µM | OVCAR-5 > 100 µM | OVCAR-4 > 100 µM | HT-29 > 95.3 µM | HL-60 24.2 µM | SK-OV-3 > 100 µM | EKVX > 100 µM | Malme-3M > 100 µM | A549 > 100 µM | SNB-75 51.2 µM | M14 > 100 µM

Clc1ccc(-c2c(C3=NCCCN3)nnn2-c2ccccc2)cc1
inactive: HOP-92 34.9 µM | ACHN > 100 µM | DLD-1 75 µM | IGROV-1 > 100 µM | RXF 393 > 100 µM | OVCAR-5 67 µM | OVCAR-4 > 100 µM | HT-29 40.1 µM | HL-60 17.6 µM | SR 56.1 µM | SK-OV-3 > 100 µM | EKVX > 100 µM | Malme-3M > 100 µM | A549 > 100 µM | SNB-75 > 100 µM | M14 > 100 µM

CC(=O)OCCOCNC(=S)N/N=C/c1ccc([N+](=O)[O-])s1
inactive: HOP-92 > 100 µM | ACHN 46.5 µM | DLD-1 31.1 µM | IGROV-1 34 µM | RXF 393 > 100 µM | OVCAR-5 37.3 µM | OVCAR-4 64.1 µM | HT-29 20.7 µM | HL-60 3.81 µM | SR 9.68 µM | SK-OV-3 > 100 µM | EKVX 55.5 µM | Malme-3M 48.4 µM | A549 43.4 µM | SNB-75 > 100 µM | M14 40 µM

CCOC(=O)C1(Br)S(=O)(=O)OCCOS1(=O)=O
inactive: HOP-92 > 100 µM | ACHN > 100 µM | DLD-1 > 100 µM | IGROV-1 > 100 µM | RXF 393 > 100 µM | OVCAR-5 > 100 µM | OVCAR-4 > 100 µM | HT-29 > 100 µM | HL-60 > 100 µM | SR > 100 µM | SK-OV-3 > 100 µM | EKVX > 100 µM | Malme-3M > 100 µM | A549 > 100 µM | SNB-75 > 100 µM | M14 > 100 µM

O=C1C[S+]([O-])c2ccccc2N1 (configuration not stated)
inactive: HOP-92 > 100 µM | ACHN > 100 µM | DLD-1 > 100 µM | IGROV-1 > 100 µM | RXF 393 > 100 µM | OVCAR-5 > 100 µM | OVCAR-4 > 100 µM | HT-29 > 100 µM | HL-60 > 100 µM | SR 45.5 µM | SK-OV-3 > 100 µM | EKVX > 100 µM | Malme-3M > 100 µM | A549 > 100 µM | SNB-75 > 100 µM | M14 > 100 µM

CCOC(=O)C1=C(Nc2ccc(Cl)cc2Cl)OCC1=O
inactive: HOP-92 > 100 µM | ACHN > 100 µM | DLD-1 > 100 µM | IGROV-1 > 100 µM | OVCAR-5 > 100 µM | OVCAR-4 > 100 µM | HT-29 > 100 µM | HL-60 > 100 µM | SR > 100 µM | SK-OV-3 > 100 µM | Malme-3M > 100 µM | A549 > 100 µM | SNB-75 > 100 µM | M14 > 100 µM

O=C(O)C12CC3CC(CC(F)(C3)C1)C2
inactive: HOP-92 > 100 µM | ACHN > 100 µM | DLD-1 > 100 µM | IGROV-1 > 100 µM | RXF 393 > 100 µM | OVCAR-5 > 100 µM | HT-29 > 100 µM | HL-60 > 100 µM | SK-OV-3 > 100 µM | EKVX > 100 µM | Malme-3M > 100 µM | A549 > 100 µM | SNB-75 65.5 µM | M14 > 100 µM

CCOC(=N)CC(=O)Nc1cccc(C)c1C
inactive: ACHN > 100 µM | DLD-1 > 100 µM | IGROV-1 > 100 µM | RXF 393 > 100 µM | OVCAR-5 > 100 µM | OVCAR-4 > 100 µM | HT-29 > 100 µM | HL-60 > 100 µM | SR > 100 µM | SK-OV-3 > 100 µM | EKVX > 100 µM | Malme-3M > 100 µM | A549 > 100 µM | SNB-75 > 100 µM | M14 > 100 µM

CCC1(CN(C)C)CC/C(=C\c2ccc(OC)cc2)C1=O (configuration not stated)
inactive: HOP-92 > 100 µM | ACHN > 100 µM | DLD-1 58.3 µM | IGROV-1 > 100 µM | RXF 393 > 100 µM | OVCAR-5 > 100 µM | OVCAR-4 > 100 µM | HT-29 44.9 µM | EKVX > 100 µM | Malme-3M > 100 µM | A549 > 100 µM | SNB-75 > 100 µM | M14 > 100 µM

— ChEMBL document CHEMBL1201862, “PubChem BioAssay data set” (2004)
